Test results published in the supplement of paper PMC10307832.

Columns and labels:
Experiment in all cases: relative viability (nuclei count vs DMSO), 5 days (fraction); higher = more cells survive
Axitinib + Bortezomib = compound: CNC(=O)c1ccccc1Sc1ccc2c(/C=C/c3ccccn3)n[nH]c2c1 [Axitinib] + CC(C)C[C@H](NC(=O)[C@H](Cc1ccccc1)NC(=O)c1cnccn1)B(O)O [Bortezomib] (partner 0.002 µM)
In short: (§1)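 The day after seeding in 1536-well plates, lung cancer cell lines were treated by pin tool with a single drug, or with a fixed anchor-drug dose together with five library-drug doses (not always all listed) in √10 steps. After 5 days, a combined fix-and-stain solution (final 0.05% Triton X-100, 1% formaldehyde, 1 ug/ml Hoechst) was added. Nuclei counted on 4× images gave relative viability as treated counts over vehicle counts, reported as the median of duplicate plates.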

[1] = compound: CC1=CC=C(C=C1)C(=O)CN2C3=C(CCCC3)SC2=N [Pifithrin_alpha] + CS(=O)(=O)CCNCc1ccc(-c2ccc3ncnc(Nc4ccc(OCc5cccc(F)c5)c(Cl)c4)c3c2)o1 [Lapatinib] (partner 2 µM)
In short: as §1

[2] = compound: CC1=CC=C(C=C1)C(=O)CN2C3=C(CCCC3)SC2=N [Pifithrin_alpha] + CC1(C)CCC(c2ccc(Cl)cc2)=C(CN2CCN(c3ccc(C(=O)NS(=O)(=O)c4ccc(N[C@H](CCN5CCOCC5)CSc5ccccc5)c(S(=O)(=O)C(F)(F)F)c4)cc3)CC2)C1 [Navitoclax] (partner 0.5 µM)
In short: as §1

Axitinib + Linsitinib = compound: CNC(=O)c1ccccc1Sc1ccc2c(/C=C/c3ccccn3)n[nH]c2c1 [Axitinib] + C[C@]1(O)C[C@@H](c2nc(-c3ccc4ccc(-c5ccccc5)nc4c3)c3c(N)nccn32)C1 [Linsitinib] (partner 1 µM)
In short: as §1

NCI-H3122
relative viability (Axitinib + Bortezomib; first compound 0.005 µM): 0.904 | relative viability (Axitinib + Bortezomib; first compound 0.01581 µM): 1.03 | relative viability (Axitinib + Bortezomib; first compound 0.05 µM): 1.04 | relative viability (Axitinib + Bortezomib; first compound 0.1581 µM): 1.05 | relative viability (Axitinib + Bortezomib; first compound 0.5 µM): 1.07 | relative viability ([1]; first compound 1 µM): 1.11 | relative viability ([1]; first compound 3.162 µM): 1.04 | relative viability ([1]; first compound 10 µM): 1.05 | relative viability ([1]; first compound 31.62 µM): 0.837 | relative viability ([1]; first compound 100 µM): 1.01 | relative viability ([2]; first compound 1 µM): 1.03 | relative viability ([2]; first compound 3.162 µM): 1.02 | relative viability ([2]; first compound 10 µM): 1.03 | relative viability ([2]; first compound 31.62 µM): 0.845 | relative viability ([2]; first compound 100 µM): 1.05 | relative viability (Axitinib + Linsitinib; first compound 0.005 µM): 1.02 | relative viability (Axitinib + Linsitinib; first compound 0.01581 µM): 0.991 | relative viability (Axitinib + Linsitinib; first compound 0.05 µM): 1.05 | relative viability (Axitinib + Linsitinib; first compound 0.1581 µM): 1.05 | relative viability (Axitinib + Linsitinib; first compound 0.5 µM): 1.07

NCI-H2023
relative viability (Axitinib + Bortezomib; first compound 0.005 µM): 0.968 | relative viability (Axitinib + Bortezomib; first compound 0.01581 µM): 1 | relative viability (Axitinib + Bortezomib; first compound 0.05 µM): 1.03 | relative viability (Axitinib + Bortezomib; first compound 0.1581 µM): 0.834 | relative viability (Axitinib + Bortezomib; first compound 0.5 µM): 1.02 | relative viability ([1]; first compound 1 µM): 0.274 | relative viability ([1]; first compound 3.162 µM): 0.737 | relative viability ([1]; first compound 10 µM): 0.638 | relative viability ([1]; first compound 31.62 µM): 0.291 | relative viability ([1]; first compound 100 µM): 0.589 | relative viability ([2]; first compound 1 µM): 0.914 | relative viability ([2]; first compound 3.162 µM): 0.968 | relative viability ([2]; first compound 10 µM): 0.8 | relative viability ([2]; first compound 31.62 µM): 0.676 | relative viability ([2]; first compound 100 µM): 0.822 | relative viability (Axitinib + Linsitinib; first compound 0.005 µM): 0.687 | relative viability (Axitinib + Linsitinib; first compound 0.01581 µM): 0.635 | relative viability (Axitinib + Linsitinib; first compound 0.05 µM): 0.698 | relative viability (Axitinib + Linsitinib; first compound 0.1581 µM): 0.636 | relative viability (Axitinib + Linsitinib; first compound 0.5 µM): 0.736

IA-LM
relative viability (Axitinib + Bortezomib; first compound 0.005 µM): 1.17 | relative viability (Axitinib + Bortezomib; first compound 0.01581 µM): 0.775 | relative viability (Axitinib + Bortezomib; first compound 0.05 µM): 0.899 | relative viability (Axitinib + Bortezomib; first compound 0.1581 µM): 0.846 | relative viability (Axitinib + Bortezomib; first compound 0.5 µM): 0.728 | relative viability ([1]; first compound 1 µM): 0.624 | relative viability ([1]; first compound 3.162 µM): 0.788 | relative viability ([1]; first compound 10 µM): 0.498 | relative viability ([1]; first compound 31.62 µM): 0.407 | relative viability ([1]; first compound 100 µM): 0.322 | relative viability ([2]; first compound 1 µM): 0.747 | relative viability ([2]; first compound 3.162 µM): 0.339 | relative viability ([2]; first compound 10 µM): 0.259 | relative viability ([2]; first compound 31.62 µM): 0.275 | relative viability ([2]; first compound 100 µM): 0.262 | relative viability (Axitinib + Linsitinib; first compound 0.005 µM): 0.546 | relative viability (Axitinib + Linsitinib; first compound 0.01581 µM): 0.437 | relative viability (Axitinib + Linsitinib; first compound 0.05 µM): 0.564 | relative viability (Axitinib + Linsitinib; first compound 0.1581 µM): 0.665 | relative viability (Axitinib + Linsitinib; first compound 0.5 µM): 0.542

NCI-H838
relative viability (Axitinib + Bortezomib; first compound 0.005 µM): 0.961 | relative viability (Axitinib + Bortezomib; first compound 0.01581 µM): 1.01 | relative viability (Axitinib + Bortezomib; first compound 0.05 µM): 0.902 | relative viability (Axitinib + Bortezomib; first compound 0.1581 µM): 0.726 | relative viability (Axitinib + Bortezomib; first compound 0.5 µM): 0.965 | relative viability ([1]; first compound 1 µM): 1.08 | relative viability ([1]; first compound 3.162 µM): 0.908 | relative viability ([1]; first compound 10 µM): 0.822 | relative viability ([1]; first compound 31.62 µM): 0.562 | relative viability ([1]; first compound 100 µM): 0.615 | relative viability ([2]; first compound 1 µM): 1.14 | relative viability ([2]; first compound 3.162 µM): 1.06 | relative viability ([2]; first compound 10 µM): 1 | relative viability ([2]; first compound 31.62 µM): 0.833 | relative viability ([2]; first compound 100 µM): 0.882 | relative viability (Axitinib + Linsitinib; first compound 0.005 µM): 1.04 | relative viability (Axitinib + Linsitinib; first compound 0.01581 µM): 1.01 | relative viability (Axitinib + Linsitinib; first compound 0.05 µM): 1.1 | relative viability (Axitinib + Linsitinib; first compound 0.1581 µM): 1 | relative viability (Axitinib + Linsitinib; first compound 0.5 µM): 1.19

COR-L 105
relative viability (Axitinib + Bortezomib; first compound 0.005 µM): 0.748 | relative viability (Axitinib + Bortezomib; first compound 0.01581 µM): 0.868 | relative viability (Axitinib + Bortezomib; first compound 0.05 µM): 0.798 | relative viability (Axitinib + Bortezomib; first compound 0.1581 µM): 0.758 | relative viability (Axitinib + Bortezomib; first compound 0.5 µM): 0.92 | relative viability ([1]; first compound 1 µM): 0.343 | relative viability ([1]; first compound 3.162 µM): 0.395 | relative viability ([1]; first compound 10 µM): 0.336 | relative viability ([1]; first compound 31.62 µM): 0.321 | relative viability ([1]; first compound 100 µM): 0.533 | relative viability ([2]; first compound 1 µM): 0.65 | relative viability ([2]; first compound 3.162 µM): 0.663 | relative viability ([2]; first compound 10 µM): 0.722 | relative viability ([2]; first compound 31.62 µM): 0.63 | relative viability ([2]; first compound 100 µM): 0.626 | relative viability (Axitinib + Linsitinib; first compound 0.005 µM): 1.04 | relative viability (Axitinib + Linsitinib; first compound 0.01581 µM): 0.792 | relative viability (Axitinib + Linsitinib; first compound 0.05 µM): 0.97 | relative viability (Axitinib + Linsitinib; first compound 0.1581 µM): 1.21 | relative viability (Axitinib + Linsitinib; first compound 0.5 µM): 1.13

RERF-LC-KJ
relative viability (Axitinib + Bortezomib; first compound 0.005 µM): 1.12 | relative viability (Axitinib + Bortezomib; first compound 0.01581 µM): 1.12 | relative viability (Axitinib + Bortezomib; first compound 0.05 µM): 1.02 | relative viability (Axitinib + Bortezomib; first compound 0.1581 µM): 1.14 | relative viability (Axitinib + Bortezomib; first compound 0.5 µM): 1.19 | relative viability ([1]; first compound 1 µM): 0.819 | relative viability ([1]; first compound 3.162 µM): 0.865 | relative viability ([1]; first compound 10 µM): 0.836 | relative viability ([1]; first compound 31.62 µM): 0.747 | relative viability ([1]; first compound 100 µM): 0.768 | relative viability ([2]; first compound 1 µM): 0.591 | relative viability ([2]; first compound 3.162 µM): 0.619 | relative viability ([2]; first compound 10 µM): 0.5 | relative viability ([2]; first compound 31.62 µM): 0.824 | relative viability ([2]; first compound 100 µM): 0.412 | relative viability (Axitinib + Linsitinib; first compound 0.005 µM): 0.962 | relative viability (Axitinib + Linsitinib; first compound 0.01581 µM): 0.81 | relative viability (Axitinib + Linsitinib; first compound 0.05 µM): 0.901 | relative viability (Axitinib + Linsitinib; first compound 0.1581 µM): 0.834 | relative viability (Axitinib + Linsitinib; first compound 0.5 µM): 0.947
